pIC50: −log10 of the molar value. Where two headings read alike, the source gives them in different places.
Experiments:
Assay type in all cases: cell-based
Tau = target: T1, Tau (Homo sapiens, UniProt P10636); experiment: Tau aggregation inhibition in Tau-BiFC cell model (Forskolin-induced)
T1 construct: BiFC fluorescent-protein fragments (two complementary halves on two tau copies); expressed in transfected cells
Procedure: (§1) To screen for new tau aggregation inhibitors, a Tau-BiFC cell model that facilitates observation of tau oligomer formation in living cells was used. Tau-BiFC cells were dispensed into a 384-well plate, and the next day, the compounds prepared according to Examples 1 to 46 were treated at concentrations of 1, 3, and 10 µM, respectively, together with Forskolin (treatment concentration 30 µM), which is a compound that induces tau aggregation by activating the tau phosphorylation enzyme PKA. After 48 hours, nuclei within cells were stained using Hoechst (treatment concentration 2 µg/mL), and BiFC fluorescence intensity was automatically quantified using Operetta (Perkin Elmer) to count the stained nuclei in each well from the entire plate. The group treated only with Forskolin, which induces tau aggregation, was set as the reference point with 100% tau aggregation state, and the effect was confirmed by the formula "BiFC fluorescence intensity by the compounds synthesized according to the Examples of the disclosure/(fluorescence intensity of the control group treated only with Forskolin that induces tau aggregation - fluorescence intensity of the untreated control group) × 100". In addition, the degree of cytotoxicity induced by the newly synthesized compounds was also calculated using the formula "(number of stained nuclei in the compound-treated group/number of stained nuclei in the Forskolin-treated group) × 100", with the group treated only with Forskolin as the reference point at 100% viability. From the treatment results, substances that inhibit intracellular tau aggregation were identified through screening from a series of candidates based on the criteria of 70% or more tau aggregation inhibition and 100% cell viability at a compound treatment concentration of 10 µM.
(§2) To confirm the tau aggregation inhibitory effect according to the concentration of the compounds screened in Experimental Example 1, the screened compounds were treated to Tau-BiFC cells at concentrations of 0.03, 0.1, 0.3, 1, 3, 10, and 30 µM, respectively, together with Forskolin (treatment concentration 30 µM), which is a tau aggregation-inducing substance. After 48 hours, cell images were examined to analyze the tau aggregation reaction and degree of cytotoxicity. The IC50 and toxicity of the compounds were analyzed by nonlinear regression analysis using Prism software (GraphPad). The calculated results for representative compounds are shown in Table 3 below: Tau aggregation inhibitory effect and cell viability of novel compounds.

Tau-BiFC cells = experiment: Cell viability (stained nuclei count) in Tau-BiFC cells
Procedure: as §1, §2

TDP-43 BiFC cells = experiment: Cell viability (stained nuclei count) in TDP-43-BiFC cells; settings: Forskolin-only group = 100%
Procedure: (§3) To screen for new TDP-43 aggregation inhibitors, a TDP-43-BiFC cell model that facilitates observation of TDP-43 aggregate formation in living cells was used. Specifically, TDP-43-BiFC cells were dispensed into a 384-well plate, and the next day, the compounds prepared according to Examples 1 to 46 were treated at concentrations of 3 and 10 µM, respectively, together with Forskolin (treatment concentration 30 µM), which is a compound that induces TDP-43 aggregation by activating the phosphorylation enzyme PKA. After 48 hours, nuclei within cells were stained using Hoechst (treatment concentration 1 µg/mL), and BiFC fluorescence intensity was automatically quantified using Operetta (PerkinElmer) to count the stained nuclei in each well from the entire plate. The group treated only with Forskolin, which induces TDP-43 aggregation, was set as the reference point with 100% TDP-43 aggregation state, and the effect was confirmed by the formula "(BiFC fluorescence intensity by the compounds synthesized according to the Examples of the disclosure - fluorescence intensity of the untreated control group)/(fluorescence intensity of the control group treated only with Forskolin that induces TDP-43 aggregation - fluorescence intensity of the untreated control group) × 100". In addition, the degree of cytotoxicity induced by the newly synthesized compounds was also calculated using the formula "(number of stained nuclei in the compound-treated group/number of stained nuclei in the Forskolin-treated group) × 100", with the group treated only with Forskolin as the reference point at 100% viability. From the treatment results, substances that inhibit intracellular TDP-43 aggregation were identified through screening from a series of candidates based on the criteria of 80% or more TDP-43 aggregation inhibition and 60% cell viability at a compound treatment concentration of 3 µM.
(§4) Furthermore, to confirm the TDP-43 aggregation inhibitory effect according to the concentration of the compounds screened in Experimental Example 3, the screened compounds were treated to […] at concentrations of 0.003, 0.01, 0.03, 0.1, 0.3, 1, 3, and 10 µM, respectively, together with Forskolin (treatment concentration 30 µM), which is a TDP-43 aggregation-inducing substance. After 48 hours, cell images were examined to analyze the TDP-43 aggregation reaction and degree of cytotoxicity. The IC50 and toxicity of the compounds were analyzed by nonlinear regression analysis using Prism software (GraphPad). The calculated results for representative compounds are shown in Table 4 below: TDP-43 protein aggregation inhibitory effect and cell viability of novel compounds.

TDP-43 protein = target: T2, TDP-43 protein (Homo sapiens, UniProt Q13148); experiment: TDP-43 aggregation inhibition in TDP-43-BiFC cell model (Forskolin-induced); settings: for inhibition at 3 µM: read-out: TDP-43 protein aggregation inhibitory effect: Aggregation inhibitory effect (%) (@3 uM)
T2 construct: BiFC fluorescent-protein fragments (two complementary halves); expressed in transfected cells
Procedure: as §3, §4

[1] = @10 µM, Tau-BiFC cell line, Forskolin-only group = 100%
[2] = Tau-BiFC cell line, Forskolin 30 µM, 48 hours, 0.03-30 µM, read-out: Tau aggregation inhibitory effect IC50
[3] = @3 uM, TDP-43 BiFC cells, Forskolin 30 µM, 48 hours

T1 sequence (P10636 1-441 isoform P10636-8): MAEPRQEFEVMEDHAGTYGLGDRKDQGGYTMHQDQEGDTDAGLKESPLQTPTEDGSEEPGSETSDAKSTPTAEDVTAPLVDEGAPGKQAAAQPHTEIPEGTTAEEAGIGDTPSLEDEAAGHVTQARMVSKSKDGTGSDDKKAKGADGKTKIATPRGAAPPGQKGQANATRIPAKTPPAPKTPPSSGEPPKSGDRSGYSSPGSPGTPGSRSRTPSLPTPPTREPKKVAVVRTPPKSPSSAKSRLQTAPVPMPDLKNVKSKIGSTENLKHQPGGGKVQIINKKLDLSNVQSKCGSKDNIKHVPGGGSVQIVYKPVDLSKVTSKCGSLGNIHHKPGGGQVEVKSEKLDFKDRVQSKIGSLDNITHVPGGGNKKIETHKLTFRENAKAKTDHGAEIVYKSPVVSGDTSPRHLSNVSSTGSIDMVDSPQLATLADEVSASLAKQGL
T2 sequence (Q13148 whole entry, the tested form may be a part): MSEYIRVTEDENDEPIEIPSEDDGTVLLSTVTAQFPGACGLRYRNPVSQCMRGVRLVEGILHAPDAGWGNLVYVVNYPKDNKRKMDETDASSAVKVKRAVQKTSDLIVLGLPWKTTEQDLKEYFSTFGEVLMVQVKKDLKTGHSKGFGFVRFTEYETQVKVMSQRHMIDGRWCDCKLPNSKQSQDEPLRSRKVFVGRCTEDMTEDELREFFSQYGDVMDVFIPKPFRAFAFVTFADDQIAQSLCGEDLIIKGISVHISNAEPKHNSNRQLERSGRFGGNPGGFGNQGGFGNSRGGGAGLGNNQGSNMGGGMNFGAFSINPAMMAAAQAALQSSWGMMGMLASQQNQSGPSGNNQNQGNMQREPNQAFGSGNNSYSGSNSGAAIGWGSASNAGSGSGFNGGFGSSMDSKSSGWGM

Row | SMILES | pIC50 (Tau) | Cell viability (% @10µM) (Tau-BiFC cells; [1]) | Cell viability (%) (@ 3 uM) (TDP-43 BiFC cells) | pIC50 (TDP-43 protein) | inhibition at 3 µM (TDP-43 protein) | pIC50 (Tau; read-out: Tau aggregation inhibitory effect IC50, Tau-BiFC cell line, Forskolin 30 µM, 48 hours, 0.03-30 µM) | pIC50 (Tau; [2]) | inhibition at 3 µM (TDP-43 protein; [3]) | Cell viability (% @10µM) (Tau-BiFC cells; 48 h, 10 µM)
1 | CN(N=C(C#N)C#N)c1ccc2nc(N3C4CCC3COC4)sc2c1 [Compound 36, (2-(3-oxa-8-azabicyclo[3.2.1]octan-8-yl)benzo[d]thiazol-6-yl)(methyl)carbonohydrazonoyl dicyanide] | 6.87 | 97% |  |  |  |  |  |  | 
2 | CC(=O)N(N=C(C#N)C#N)c1ccc2nc(N3CCOCC3)sc2c1 [Compound 37, acetyl(2-morpholinobenzo[d]thiazol-6-yl)carbonohydrazonoyl dicyanide] | 7.62 | 85% | 61.3% | 9.15 | 91.2% |  |  |  | 
3 | N#CC(C#N)=NNc1ccc2nc(N3CCCC3)oc2c1 [Compound 45, (2-(pyrrolidin-1-yl)benzo[d]oxazol-6-yl)carbonohydrazonoyl dicyanide] | 8.40 | 98% | 73.6% | 6.43 | 81.1% |  |  |  | 
4 | N#CC(C#N)=NNc1ccc2nc(N3CC[C@H](F)C3)oc2c1 [Compound 43, (S)-(2-(3-fluoropyrrolidin-1-yl)benzo[d]oxazol-6-yl)carbonohydrazonoyl dicyanide] |  | 100% | 89.0% |  | 92.9% | 7.55 |  |  | 
5 | N#CC(C#N)=NNc1ccc2nc(N3CCCC(F)C3)oc2c1 (stereo not shown) [Compound 44, (2-(3-fluoropiperidin-1-yl)benzo[d]oxazol-6-yl)carbonohydrazonoyl dicyanide] | 7.92 | 100% | 85.0% |  | 71.1% |  |  |  | 
6 | CN(C)c1ccc(-c2nc3ccc(NN=C(C#N)C#N)cc3s2)cc1 [Comparative compound 4, N-(2-(4-(dimethylamino)phenyl)benzo[d]thiazol-6-yl) carbonohydrazonoyl dicyanide, reference compound] |  | 80% |  |  |  |  | 5.51 |  | 
7 | CC(C)(C)OC(=O)N1CCN(c2nc3ccc(NN=C(C#N)C#N)cc3s2)CC1 [Compound 22, tert-butyl 4-(6-(2-(dicyanomethylene)hydrazinyl)benzo[d]thiazol-2-yl)piperazine-1-carboxylate] |  |  | 130.7% |  |  |  |  | 66.5% | 
8 | N#CC(C#N)=NNc1ccc2nc(N3CCC[C@@H](F)C3)oc2c1 [Compound 47, (R)-N-(2-(3-fluoropiperidin-1-yl)benzo[d]oxazol-6-yl)carbonohydrazonoyl dicyanide] | 6.93 | 100% |  |  |  |  |  |  | 
9 | N#CC(C#N)=NNc1ccc2nc(-c3ccc(F)cc3)sc2c1 [Comparative compound 3, N-(2-(4-fluorophenyl)benzo[d]thiazol-6-yl) carbonohydrazonoyl dicyanide, reference compound] | 5.49 | 50% |  |  |  |  |  |  | 
10 | N#CC(C#N)=NNc1cc2oc(N3CCOCC3)nc2cc1Cl [Compound 19, (5-chloro-2-morpholinobenzo[d]oxazol-6-yl)carbonohydrazonoyl dicyanide] | 6.34 | 100% | 97.0% |  | 92.6% |  |  |  | 
11 | N#CC(C#N)=NNc1ccc2nc(N3CCCCC3)oc2c1 [Compound 46, (2-(piperidin-1-yl)benzo[d]oxazol-6-yl)carbonohydrazonoyl dicyanide] | 7.80 | 100% | 73.6% | 6.49 | 81.4% |  |  |  | 
12 | N#CC(C#N)=NNc1ccc2nc(-c3ccccc3)sc2c1 [Comparative compound 2, N-(2-phenylbenzo[d]thiazol-6-yl) carbonohydrazonoyl dicyanide, reference compound] | 5.55 | 65% |  |  |  |  |  |  | 
13 | N#CC(C#N)=NNc1ccc2nc(-c3cccs3)sc2c1 [Comparative compound 5, N-(2-(thiophen-2-yl)benzo[d]thiazol-6-yl) carbonohydrazonoyl dicyanide, reference compound] | 5.14 | 70% |  |  |  |  |  |  | 
14 | C[C@@H]1CN(c2nc3ccc(NN=C(C#N)C#N)cc3s2)C[C@H](C)N1C(=O)OC(C)(C)C [Compound 29, (2R,6S)-tert-butyl 4-(6-(2-(dicyanomethylene)hydrazinyl)benzo[d]thiazol-2-yl)-2,6-dimethylpiperazine-1-carboxylate] |  |  | 96.2% |  |  |  | 7.44 | 47.2% | 97%
15 | N#CC(C#N)=NNc1ccc2nc(N3CCC[C@H](F)C3)oc2c1 [Compound 42, (S)-(2-(3-fluoropiperidin-1-yl)benzo[d]oxazol-6-yl)carbonohydrazonoyl dicyanide] | 7.70 | 100% | 62.4% |  | 64.7% |  |  |  | 

— patent EP4737445A1, “NOVEL SATURATED HETEROCYCLE-SUBSTITUTED HETEROARYL-CARBONOHYDRAZONOYL DICYANIDE COMPOUND AND USE THEREOF” (Korea Institute of Science and Technology, priority 2023, dated 2025)
